Assay results published in ChEMBL document CHEMBL1932979, “Conformationally restricted analog and biotin-labeled probe based on beauveriolide III” (Bioorg Med Chem Lett, 2012).
Active and inactive are the calls of the source. The calls are words filed in the database; no cut-off is given here.

Experiments:
[1] = biological target: T1, Sterol O-acyltransferase 1 (Homo sapiens, UniProt P35610); assay: Inhibition of ACAT1- mediated cholesteryl ester synthesis in macrophages
T1 sequence (P35610 whole entry): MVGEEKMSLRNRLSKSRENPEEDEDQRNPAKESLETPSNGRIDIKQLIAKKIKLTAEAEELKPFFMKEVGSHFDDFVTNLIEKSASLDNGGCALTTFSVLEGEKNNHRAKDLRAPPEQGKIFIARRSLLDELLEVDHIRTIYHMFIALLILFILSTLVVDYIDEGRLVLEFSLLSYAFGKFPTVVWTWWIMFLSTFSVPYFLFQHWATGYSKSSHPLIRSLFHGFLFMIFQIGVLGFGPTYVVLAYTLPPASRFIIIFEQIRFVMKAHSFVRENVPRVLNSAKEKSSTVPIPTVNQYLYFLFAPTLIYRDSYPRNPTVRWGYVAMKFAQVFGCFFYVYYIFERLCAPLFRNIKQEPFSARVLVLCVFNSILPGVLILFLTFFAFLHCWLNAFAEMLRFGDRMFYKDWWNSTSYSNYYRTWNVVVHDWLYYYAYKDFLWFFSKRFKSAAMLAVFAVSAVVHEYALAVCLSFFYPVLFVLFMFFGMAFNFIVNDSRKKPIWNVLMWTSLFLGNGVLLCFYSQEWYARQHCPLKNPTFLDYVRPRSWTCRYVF

[2] = biological target: T2, Sterol O-acyltransferase 1 (Homo sapiens) (UniProt P35610); assay: Inhibition of ACAT1- mediated cholesteryl ester synthesis in macrophages up to 10 uM
T2 sequence (whole entry): T1 sequence (P35610 whole entry)

Row | IC50 [1] [nM] | inhibition [2] | Compound
1 | 800 | inactive | CCCC[C@H](C)[C@@H]1CC(=O)N[C@@H](C(c2ccccc2)c2ccccc2)C(=O)N[C@H](Cn2cc(CNC(=O)CCCCNC(=O)CCCC[C@@H]3SC[C@@H]4NC(=O)N[C@@H]43)nn2)C(=O)N[C@H](C2CCCCC2)C(=O)O1
2 | 280 | – | CCCC[C@H](C)[C@@H]1CC(=O)N[C@@H](C(c2ccccc2)c2ccccc2)C2=N[C@H](CO2)C(=O)N[C@H](C2CCCCC2)C(=O)O1
